We go through two substances from patent US7959743B2, “Lithium salts of fatty alcohol sulphates for cleaning boreholes, boring devices and borings” (priority 2004, dated 2011).

In this data set the test system is Corophium volutator. To be noted: in vivo.

As to C8-10 alkyl-1,5-glucoside [V4], the “Corophium volutator 10 d, LC 50” value is on record as “None after 433 mg/kg”.

Consider Soya polyol ethoxylate [V3], for which the “Corophium volutator 10 d, LC 50” value is on record as 1888 mg/kg.
